pIC50: −log10 of the molar value. Like-named read-outs stand apart in the source and are kept apart here. *1 amine or outer side, *2 acyl side, *3 side chain or, on linkers, in order; H or OH if unused. Where a SMILES comes first, the peptide text is derived from it. Bridges are numbered along the chain shown (N, C = ends). Where no end group is shown, it is not given here. [ ]: non-standard residue; d: D form. The star is where a group is joined. Staurosporine = CO[C@@H]1[C@H](N(C)*)C[C@H]2O[C@]1(C)n1c3ccccc3c3c4c(c5c6ccccc6n2c5c31)C(=O)NC4; Suc = O=C(CCC(=O)[*:2])[*:1]; Dap = NC[C@H](N)C(=O)O; βAla = NCCC(=O)O
Experiments:
[1] = target: T1, cAMP-dependent protein kinase (PKA) (Homo sapiens, UniProt P17612); conditions: earlier proof-of-principle studies; cited from earlier work
[2] = target: T1, cAMP-dependent protein kinase (PKA); experiment: PKA inhibitor IC50 determination; assay type: biochemical
PKA [3] = target: T2, PKA (Homo sapiens, UniProt P17612); assay type: biochemical; conditions: versus Kemptide
PKA [4] = target: T2, PKA; experiment: PKA kinase assays in the presence of 7.5 mM DTT; assay type: biochemical

**Q.** With cyclo(CTFRVFGC)G [1b] as the molecule, how does the pIC50 [1] read?
**A.** 4.24

**Q.** For CC(C)[C@@H]1NC(=O)[C@H](CCCNC(=N)N)NC(=O)[C@H](Cc2ccccc2)NC(=O)[C@H]([C@@H](C)O)NC(=O)[C@@H](NC(=O)CCNC(=O)CCNC(=O)CCNC(=O)CCNC(=O)CCNC(=O)CCNC(=O)CCNC(=O)[C@H]2O[C@@H](n3cnc4c(N)ncnc43)[C@H](O)[C@@H]2O)CSSC[C@@H](C(=O)NCC(N)=O)NC(=O)CNC(=O)[C@H](Cc2ccccc2)NC1=O [compound 6] (HELM PEPTIDE1{[Nc1ncnc2c1ncn2[C@@H]1O[C@H](C(=O)[*:2])[C@@H](O)[C@H]1O].[bAla].[bAla].[bAla].[bAla].[bAla].[bAla].[bAla].C.T.F.R.V.F.G.C.G.[am]}$PEPTIDE1,PEPTIDE1,9:R3-16:R3$$$V2.0), which “improvement from the adenosine derivative 6a” value ([2]; ratio of PKA IC50 values) is on record?
**A.** > 300 fold

**Q.** With “cyclo(CTFRVFGC)G (CTFRVFGCG; disulfide 1-8 (inferred)) [1b]” as the molecule, how does the “mode of inhibition with respect to peptide substrate (best-fit model)” value (PKA [3]) read?
**A.** noncompetitive

**Q.** Which “sensitivity to reducing conditions” value (PKA [4]) does the source give for CO[C@@H]1[C@H](N(C)C(=O)CCC(=O)NCCC(=O)NCCC(=O)NCCC(=O)NCCC(=O)NCCC(=O)NCCC(=O)NCCC(=O)N[C@H]2CC(=O)NC[C@@H](C(=O)NCC(N)=O)NC(=O)CNC(=O)[C@H](Cc3ccccc3)NC(=O)[C@H](C(C)C)NC(=O)[C@H](CCCNC(=N)N)NC(=O)[C@H](Cc3ccccc3)NC(=O)[C@H]([C@@H](C)O)NC2=O)C[C@H]2O[C@]1(C)n1c3ccccc3c3c4c(c5c6ccccc6n2c5c31)C(=O)NC4 [compound 7] ({Staurosporine-Suc-βAla-βAla-βAla-βAla-βAla-βAla-βAla}-DTFRVFG[Dap]G-NH2; lactam 1-8) here?
**A.** insensitive to reducing conditions

**Q.** With Nc1ncnc2c1ncn2[C@@H]1O[C@H](C(=O)O)[C@@H](O)[C@H]1O [6a] as the molecule, how does the pIC50 [2] read?
**A.** < 3.00

— paper PMC2749490 (Bioorganic & medicinal chemistry, 2009)
